Calls of active or inactive are those of the source. The rule behind the calls is not given here.
Experiments:
[1] = molecular target: T1, CREB-binding protein (Homo sapiens, UniProt Q92793); assay: Inhibition of CBP (unknown origin) using histone H3 (1 to 21 residues) as substrate preincubated for 15 mins followed by substrate and [3H]Ac-CoA addition and measured after 60 mins by liquid scintillation counting analysis
[2] = molecular target: T2, Histone acetyltransferase p300 (Homo sapiens, UniProt Q09472); assay: Inhibition of p300 (unknown origin) using histone H3 (1 to 21 residues) as substrate preincubated for 15 mins followed by substrate and [3H]Ac-CoA addition and measured after 60 mins by liquid scintillation counting analysis
[3] = molecular target: T3, Protein cereblon/CREB-binding protein (Homo sapiens) (UniProt Q92793+Q96SW2); assay: PROTAC activity at CRBN/CBP in human MOLM16 cells assessed as reduction in CBP protein level at 500 nM pretreated with MG-132 for 2 hrs followed by compound treatment and measured after 18 hrs by Western blot analysis; type: cell-based
[4] = molecular target: T1, CREB-binding protein; assay: Inhibition of C-terminal biotinylated tetra-acetylated histone peptide H4 binding to His6-fused human CBP bromodomain (R1081 to G1197 residues) incubated for 1 hrs by HTRF assay
[5] = Toxicity in NOD-SCID mouse xenografted with human MOLM16 cells assessed as pathological changes in kidney at 30 mg/kg, ip administered once daily for 2 weeks by H and E staining based analysis; type: organism-based; conditions: in vivo, 336 h
[6] = Toxicity in NOD-SCID mouse xenografted with human MOLM16 cells assessed as pathological changes in heart at 30 mg/kg, ip administered once daily for 2 weeks by H and E staining based analysis; type: organism-based; conditions: in vivo, 336 h
[7] = molecular target: T3, Protein cereblon/CREB-binding protein (Homo sapiens); assay: PROTAC activity at CRBN/CBP in human MOLM16 cells assessed as reduction in CBP protein level at 500 nM measured after 18 hrs by Western blot analysis; type: cell-based
[8] = system: KG-1; assay: Antiproliferative activity against human KG-1 cells assessed as inhibition of cell growth incubated for 72 hrs by celltiter glo luminescence analysis; type: functional, cell-based; conditions: KG-1, 72 h
[9] = molecular target: T4, Protein cereblon/Histone acetyltransferase p300 (Homo sapiens) (UniProt Q09472+Q96SW2); assay: PROTAC activity at CRBN/p300 in human MOLM16 cells assessed as reduction in p300 protein level at 500 nM measured after 18 hrs by Western blot analysis; type: cell-based
[10] = molecular target: T4, Protein cereblon/Histone acetyltransferase p300 (Homo sapiens); assay: PROTAC activity at CRBN/p300 in human MOLM16 cells assessed as reduction in p300 protein level at 500 nM pretreated with MG-132 for 2 hrs followed by compound treatment and measured after 18 hrs by Western blot analysis; type: cell-based
[11] = molecular target: T3, Protein cereblon/CREB-binding protein (Homo sapiens); assay: Binding affinity to biotinylated CRBN (40 to 442 residues) (unknown origin)/His6-fused human CBP bromodomain (R1081 to G1197 residues) assessed as ternary complex formation incubated for 1.5 hrs by Alphascreen assay; type: protein assay
[12] = molecular target: T4, Protein cereblon/Histone acetyltransferase p300 (Homo sapiens); assay: PROTAC activity at CRBN/p300 in human MOLM16 cells assessed as reduction in p300 protein level at 500 nM pretreated with pomalidomide for 2 hrs followed by compound treatment and measured after 18 hrs by Western blot analysis; type: cell-based
[13] = molecular target: T3, Protein cereblon/CREB-binding protein (Homo sapiens); assay: PROTAC activity at CRBN/CBP in human MOLM16 cells assessed as reduction in CBP protein level at 500 nM pretreated with pomalidomide for 2 hrs followed by compound treatment and measured after 18 hrs by Western blot analysis; type: cell-based
[14] = molecular target: T3, Protein cereblon/CREB-binding protein (Homo sapiens); assay: PROTAC activity at CRBN/CBP in human MOLM16 cells assessed as induction of CBP degradation at 333 nM incubated for 24 hrs by Western blot analysis relative to control; type: cell-based
[15] = Toxicity in NOD-SCID mouse xenografted with human MOLM16 cells assessed as pathological changes in lung at 30 mg/kg, ip administered once daily for 2 weeks by H and E staining based analysis; type: organism-based; conditions: in vivo, 336 h
[16] = Toxicity in NOD-SCID mouse xenografted with human MOLM16 cells assessed as pathological changes in spleen at 30 mg/kg, ip administered once daily for 2 weeks by H and E staining based analysis; type: organism-based; conditions: in vivo, 336 h
[17] = Toxicity in NOD-SCID mouse xenografted with human MOLM16 cells assessed as reduction in body weight at 30 mg/kg, ip administered once daily for 2 weeks; type: organism-based; conditions: in vivo, 336 h
[18] = Cytotoxicity against human HL7702 cells assessed as inhibition of cell growth incubated for 72 hrs by celltiter glo luminescence analysis; type: toxicity, cell-based; conditions: HL7702 (L02) cells
[19] = molecular target: T4, Protein cereblon/Histone acetyltransferase p300 (Homo sapiens); assay: PROTAC activity at CRBN/p300 in human MOLM16 cells assessed as induction of p300 degradation incubated for 24 hrs by Western blot analysis; type: cell-based; conditions: dose 0-1000 nM
[20] = molecular target: T3, Protein cereblon/CREB-binding protein (Homo sapiens); assay: In vivo PROTAC activity at CRBN/CBP in NOD-SCID mouse xenografted with human MOLM16 cells assessed as reduction in CBP level in tumor at 30 mg/kg, ip administered once daily for 2 weeks and measured 1 day post last dose by Western blot analysis; type: functional, organism-based; conditions: time 15.0 day
[21] = system: MV4-11; assay: Potency index, ratio of Y08207 IC50 to test compound IC50 for antiproliferative activity against human MV4-11 cells assessed as inhibition of cell growth incubated for 120 hrs by celltiter glo luminescence analysis; type: functional
[22] = molecular target: T4, Protein cereblon/Histone acetyltransferase p300 (Homo sapiens); assay: Binding affinity to biotinylated CRBN (40 to 442 residues) (unknown origin)/His6-fused human p300 bromodomain (A1040 to G1161 residues) assessed as ternary complex formation incubated for 1.5 hrs by Alphascreen assay; type: protein assay
[23] = molecular target: T4, Protein cereblon/Histone acetyltransferase p300 (Homo sapiens); assay: PROTAC activity at CRBN/p300 in human MOLM16 cells assessed as induction of p300 degradation at 333 nM incubated for 24 hrs by Western blot analysis relative to control; type: cell-based
[24] = Toxicity in NOD-SCID mouse xenografted with human MOLM16 cells assessed as pathological changes in liver at 30 mg/kg, ip administered once daily for 2 weeks by H and E staining based analysis; type: organism-based; conditions: in vivo, 336 h
[25] = Antitumor activity against human MOLM16 cells xenografted in NOD-SCID mouse assessed as tumor growth inhibition at 30 mg/kg, ip administered once daily for 2 weeks and measured every other day by caliper method relative to control; type: functional, MOLM-16; conditions: MOLM16, 336 h, read-out: TGI
[26] = molecular target: Protein cereblon (Homo sapiens, UniProt Q96SW2); assay: Inhibition of biotinylated thalidomide binding to CRBN (40 to 442 residues) (unknown origin) incubated for 1 hrs by HTRF assay
[27] = system: Mus musculus; assay: In vivo PROTAC activity at CRBN/p300 in NOD-SCID mouse xenografted with human MOLM16 cells assessed as reduction in p300 level in tumor at 30 mg/kg, ip administered once daily for 2 weeks and measured 1 day post last dose by Western blot analysis; type: functional, organism-based; conditions: time 15.0 day
[28] = molecular target: T2, Histone acetyltransferase p300; assay: Inhibition of C-terminal biotinylated tetra-acetylated histone peptide H4 binding to His6-fused human p300 bromodomain (A1040 to G1161 residues) incubated for 1 hrs by HTRF assay
[29] = molecular target: T3, Protein cereblon/CREB-binding protein (Homo sapiens); assay: PROTAC activity at CRBN/CBP in human MOLM16 cells assessed as induction of CBP degradation incubated for 24 hrs by Western blot analysis; type: cell-based; conditions: dose 0-1000 nM
[30] = molecular target: T4, Protein cereblon/Histone acetyltransferase p300 (Homo sapiens); assay: PROTAC activity at CRBN/p300 in human MOLM16 cells assessed as induction of p300 degradation at 500 nM by Western blot analysis; type: cell-based; conditions: time 0-24 hrs, TDE = time-dependent effect
[31] = system: MV4-11; assay: Antiproliferative activity against human MV4-11 cells assessed as inhibition of cell growth incubated for 120 hrs by celltiter glo luminescence analysis; type: functional, cell-based; conditions: MV4-11, 120 h
[32] = molecular target: T3, Protein cereblon/CREB-binding protein (Homo sapiens); assay: PROTAC activity at CRBN/CBP in human MOLM16 cells assessed as induction of CBP degradation at 500 nM by Western blot analysis; type: cell-based; conditions: time 0-24 hrs, TDE = time-dependent effect
[33] = Antiproliferative activity against human MOLM16 cells assessed as inhibition of cell growth incubated for 72 hrs by celltiter glo luminescence analysis; type: functional, cell-based, MOLM-16; conditions: MOLM16, 72 h

**Q.** For `CNC(=O)Nc1ccc2c(c1)CC[C@@]21OC(=O)N(CC(=O)N2Cc3cc(F)ccc3OC[C@H]2C2CC2)C1=O`, which IC50 [1] is on record?
**A.** 11 nM

**Q.** And the IC50 [2]?
**A.** 0.5 nM

**Q.** What does the source list for `CC(=O)c1cc(C(=O)Nc2cc(CO)cc(-c3cnn(C)c3)c2F)c2cc(OCC(=O)NCCCCNc3cccc4c3C(=O)N(C3CCC(=O)NC3=O)C4=O)ccn12` (stereo not drawn)?
**A.** Activity [3]: inactive; IC50 [4]: 21 nM; Activity [5]: Non-Toxic; Activity [6]: Non-Toxic; Activity [7]: Active; IC50 [8]: 570 nM; Activity [9]: Active; Activity [10]: inactive; Activity [11]: Active; Activity [12]: inactive; Activity [13]: inactive; Activity [14]: 100%; Activity [15]: Non-Toxic; Activity [16]: Non-Toxic; Activity [17]: Non-Toxic; IC50 at 72 h [18]: > 100 µM; Activity [19]: Dose-Dependent Effect; Activity [20]: Active; Ratio IC50 [21]: 140; Activity [22]: Active; Activity [23]: 100%; Activity [24]: Non-Toxic; inhibition in vivo at 30 mg/kg [25]: 60%; IC50 [26]: 180 nM; Activity [27]: Active; IC50 [28]: 30 nM; Activity [29]: Dose-Dependent Effect; Activity [30]: Tde; IC50 [31]: 44 nM; Activity [32]: Tde; IC50 [33]: 7 nM

Reference: ChEMBL document CHEMBL5512685, “Discovery of a Promising CBP/p300 Degrader XYD129 for the Treatment of Acute Myeloid Leukemia” (J Med Chem, 2024)
